Source: patent US7160898B2, “Pharmacological treatment for sleep apnea” (Board of Trustees of The University of Illinois, priority 2002, dated 2007)
“Also recorded” adds a separate entry of the source.

System: spontaneous sleep-related central apneas
Test: Induction and suppression of sleep apneas by serotonin and GR38032F (Example 3)
Assay type: in vivo, rat (Sprague-Dawley)
Protocol: Ten adult male Sprague-Dawley rats (Sasco-King, Wilmington, Mass.; 300 g) were maintained on a 12-h light (08:00–20:00 hour)/12-hour dark (20:00–08:00) cycle for one week, housed in individual cages, and given ad libitum access to food and water. Following the one week of acclimatization, animals were prepared for physiological testing via the surgical procedures (i.e., implantation of cortical electrodes for EEG recording and neck muscle electrodes for EMG recording, implantation of a radiotelemetry transmitter for BP and HP monitoring) as set forth above in Example 1. After completion of the surgical procedures, animals were allowed a one week recovery period prior to use in the present study. Each animal was recorded on four occasions, with recordings for an individual animal separated by at least three days. Fifteen minutes prior to each recording, each animal received (via intraperitoneal injection), in random order, one of the following: (a) saline solution (control); (b) 0.79 mg/kg serotonin; (c) 0.1 mg/kg GR38032F plus 0.79 mg/kg serotonin; or (d) 0.1 mg/kg GR38032F. For the GR38032F+serotonin test group, 0.1 mg/kg GR38032F was administered at time 09:30 followed by 0.79 mg/kg serotonin at time 09:45. Polygraphic recordings were made from 10:00–16:00. Respiration BP, EEG, and EMG data were determined and recorded via the experimental procedure as specifically set forth above in Example 2. As in Example 2, sleep apneas, defined as cessation of respiratory effort for at least 2.5 s, were scored for each recording session and were associated with the stage in which they occurred: NREM or REM sleep. The duration requirement of 2.5 s represents at least two “missed” breaths, which is analogous to a 10-s apnea duration requirement in humans. The effects of sleep stage (NREM vs REM) and injection (control vs. administration of either serotonin alone, GR38032F+serotonin, or GR38032F alone) on apnea indexes, respiratory pattern, BP, and HP were tested using analysis of variance (ANOVA) with repeated measures. Multiple comparisons were controlled using Fisher's protected least-significance difference (PLSD). One-way ANOVA was also performed by nonparametric (Kruskal-Wallis) analysis. Conclusions using parametric and nonparametric ANOVA were identical in all cases.

Cc1nccn1CC1CCc2c(c3ccccc3n2C)C1=O.Cl.O.O (stereo not drawn) [GR38032F, 1,2,3,9-tetrahydro-9-methyl-3-[(2-methylimidazol-1-yl)methyl]carbazole-4-one, hydrochloride, dihydrate]
antagonism of the serotonin-induced increase of REM sleep apneas (0.1 mg/kg GR38032F i.p. 15 min before 0.79 mg/kg serotonin, hydrochloride, dihydrate): abolished; also recorded: fully blocked | effect on REM sleep spontaneous apneas (GR38032F alone 0.1 mg/kg i.p.): had no effect on REM sleep spontaneous apneas | spontaneous apnea index during NREM sleep (i.p., serotonin 0.79 mg/kg, GR38032F 0.1 mg/kg, 6 hour recording): not affected by any drug treatment
